Values quoted from earlier work, collected in patent US20220313611A1, “METHODS TO PREPARE DRY POWDERS USING SUSPENSION BASED THIN FILM FREEZING” (BOARD OF REGENTS, THE UNIVERSITY OF TEXAS SYSTEM, priority 2021, published 2022).

For `C=CC[C@@H]1/C=C(\C)C[C@H](C)C[C@H](OC)[C@H]2O[C@@](O)(C(=O)C(=O)N3CCCC[C@H]3C(=O)O[C@H](/C(C)=C/[C@@H]3CC[C@@H](O)[C@H](OC)C3)[C@H](C)[C@@H](O)CC1=O)[C@H](C)C[C@@H]2OC` [TAC, Tacrolimus], the solubility in water is listed as “practically insoluble in water”.
